The text below walks through data of patent US20100130549A1, “PSYCHOTROPIC COMPOUNDS, COMPOSITIONS AND METHODS OF USE” (priority 2007, published 2010).

The test system of data set [1] is BALB/c mice. As to the kind of experiment: Open field test.
Another data set deals with ICR male mice. Description: Subchronic ip administration (toxicity). The data set is classed as in vivo. The following applies: mouse, in vivo, ip, 30 mg/kg. The text has this:
[…]. Except for this local irritation no other toxicity was noted.
[…]. […] Except of these local irritations no other toxicity was noted.

In another data set the target is Histamine H2 (Homo sapiens, UniProt P25021). Description: Radioligand binding assay, Histamine H2. From the text: (§1) . Table 1 provides data produced via a receptor binding assay and IC50 and Ki determination. […] In addition, the compound of formula (Ia) has a potent DAT inhibition, which is indicative of dopaminergic uptake inhibition and increased DA activity. In addition to the effect on SERT and DAT, the compound of formula (Ia) inhibited the transporter of Norepinephrine (NET), and several neurotransmitter's receptors like alpha2A and alpha2C receptors, alpha 1A and alphal C, 5HT2A and 5HT2C, signal histamine2 and dopamine D1. This specific profile is in line with the data on antidepressant, anxiolytic and moderate neuro-stimulation activity observed in the animal model studies.
Histamine H2, sequence (P25021 whole entry): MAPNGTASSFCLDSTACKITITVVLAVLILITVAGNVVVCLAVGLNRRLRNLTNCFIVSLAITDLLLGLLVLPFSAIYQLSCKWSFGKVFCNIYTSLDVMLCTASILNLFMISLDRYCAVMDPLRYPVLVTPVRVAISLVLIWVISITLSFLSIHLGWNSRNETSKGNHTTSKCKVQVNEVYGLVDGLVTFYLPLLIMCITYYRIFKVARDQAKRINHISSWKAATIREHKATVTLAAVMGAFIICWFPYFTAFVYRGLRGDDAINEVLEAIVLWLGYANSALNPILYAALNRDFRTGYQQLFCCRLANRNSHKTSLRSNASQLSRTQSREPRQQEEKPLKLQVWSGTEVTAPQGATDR
(§2) With regard to the data provided in Table 1, the biochemical assay results are presented as the percent inhibition of specific binding or activity throughout the report. For primary assays, only the lowest concentration with a significant response judged by the assays’ criteria, is shown in this summary. […] Unless otherwise requested, primary screening in duplicate with quantitative data (e.g., IC50±SEM, Ki±SEM and nH) are shown.

Another data set has as its target T1, Adrenergic α2c (Homo sapiens, UniProt P18825).
T1 construct: 203800
T1 sequence (P18825 1-462): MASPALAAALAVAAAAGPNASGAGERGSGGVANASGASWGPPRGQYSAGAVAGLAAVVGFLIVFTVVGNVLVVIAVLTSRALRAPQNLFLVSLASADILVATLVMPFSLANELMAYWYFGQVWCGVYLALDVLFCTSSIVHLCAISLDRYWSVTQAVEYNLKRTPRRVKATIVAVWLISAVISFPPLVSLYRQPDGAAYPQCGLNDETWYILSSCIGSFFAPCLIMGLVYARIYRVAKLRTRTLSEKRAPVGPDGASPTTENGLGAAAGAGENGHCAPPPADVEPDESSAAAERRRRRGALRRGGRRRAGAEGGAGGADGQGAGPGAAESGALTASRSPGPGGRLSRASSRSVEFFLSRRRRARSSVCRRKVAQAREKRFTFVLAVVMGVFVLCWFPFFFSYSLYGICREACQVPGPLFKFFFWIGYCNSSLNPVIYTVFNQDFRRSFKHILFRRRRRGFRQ
Description: Radioligand binding assay, Adrenergic α2c.
Text: as §1, §2

The subject of data set [2] is BALB/c mice. Description: Acute toxicity, ip administration. It counts as in vivo. The following applies: ip up to 30 mg/kg. The protocol: […]. […] The body weight of the mice was determined up to 12 days after administration of the compounds.
Where [3] appears, read: 10 mg/kg (equimolar) ip 1 hr prior.
[4] abbreviates: 10 mg/kg (equimolar) ip 1 hr prior, p<0.001 vs controls.

The IC50 is the concentration that gives 50% inhibition. Low readings indicate greater potency, high ones weaker potency. As usually defined, the inhibition is the drop in the measured response relative to a control, in per cent. On to `CN[C@H]1CC[C@@H](c2ccc(Cl)c(Cl)c2)c2ccc(C#CCCCO)cc21` [compound Ia, (1S-cis)-4-(3,4-dichlorophenyl)-7-(5-hydroxy-1-pentyn-1-yl)-1,2,3,4-tetrahydro-N-methyl-1-naphthalenamine hydroiodide], for which, in the data set with BALB/c mice [1] (setting [3]), the “ratio (center/periphery)” value was “significantly increase” and the “total time spent in the center (areas 2+3)” value is on record as “significantly increase”. For the same molecule, the “frequency to the center” value in the data set with BALB/c mice [1] (10 mg/kg (equimolar) ip 1 hr prior, controls 1.23) amounted to 1.35. Also, in the data set on BALB/c mice [1] (setting [4]), the distance moved result is on record as “significantly increase” and the velocity entry is “significantly increase”. Besides, the “sedative effect accompanying the anxiolytic activity” value in the data set on BALB/c mice [1] (orally 90 min prior) is reported as “not accompanied by a sedative effect”. Moreover, the “histopathology of heart, spleen, liver and kidney” value in the data set with ICR male mice is listed as “minimal to mild irritation”. At Histamine H2, this molecule registered a 50% inhibitory concentration (IC50) of 1560 nM and a nH of 1.37. At Histamine H2 (3 μM), this molecule had an inhibition at 3 µM of 70%. The Ki at Histamine H2 (read-out: K1) was 1280 nM. In addition, on Adrenergic α2c, the IC50 worked out at 1900 nM and the nH turned out to be 1.03. At Adrenergic α2c (3 μM), this molecule yielded an inhibition at 3 µM of 62%. Moreover, the Ki at Adrenergic α2c (read-out: K1) came out at 276 nM. Also, the survival result in the data set with BALB/c mice [2] is recorded as “all of the corresponding animals survived”.
